Entries after “also recorded” stand apart in the source; their conditions may differ. Where two headings read alike, the source gives them in different places. Ends that are not written are not given here.
What was measured:
H-2 I-A^b [1] = biological target: T1, H-2 I-A^b (Mus musculus, UniProt P14434+P14483); experiment: I-A^b binding affinity, competitive inhibition assay with purified MHC and radio-labeled ligand
T1 sequence (P14434 24-256): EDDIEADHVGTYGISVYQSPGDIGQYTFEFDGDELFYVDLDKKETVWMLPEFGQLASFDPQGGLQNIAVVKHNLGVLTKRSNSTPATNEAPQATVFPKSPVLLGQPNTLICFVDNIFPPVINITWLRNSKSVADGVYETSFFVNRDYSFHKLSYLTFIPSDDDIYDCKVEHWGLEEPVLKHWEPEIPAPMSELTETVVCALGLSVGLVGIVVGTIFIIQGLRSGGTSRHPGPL
T1 sequence (P14483 28-265): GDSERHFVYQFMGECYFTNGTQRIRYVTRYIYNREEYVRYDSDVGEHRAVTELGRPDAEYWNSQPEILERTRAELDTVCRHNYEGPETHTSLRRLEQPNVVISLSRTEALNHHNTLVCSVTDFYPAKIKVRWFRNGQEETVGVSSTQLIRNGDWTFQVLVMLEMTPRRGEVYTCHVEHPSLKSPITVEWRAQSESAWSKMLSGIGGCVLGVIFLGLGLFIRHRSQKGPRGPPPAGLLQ
Method: We measured I-A^b binding affinity using a classical competitive inhibition assay utilizing purified MHC and high affinity radio-labeled I-A^b ligands ([39]). Their ability to displace the radio-labeled I-A^b ligand was measured, and an inhibitory concentration required to displace 50% of the radio-labeled ligand (IC50) was determined.
A peptide can only be recognized by a CD4^+ helper T-cell if it is bound to MHC class II. Because Apoe^−/− mice are on a C57B/6 background, candidate epitopes must be able to bind to the Class II allele, I-A^b. Previously, it has been shown that I-A^b binding motifs can be predicted using algorithms based on the number of anchor residues and hydrophobicity ([36]–[38]). […] The binding affinity is reflected by the amount of peptide, in […], needed to inhibit binding of a standardized radio-labeled peptide by 50% (the IC50) ([39]).

mice = settings: human ApoB-100 B-cell epitope; cited from earlier work
Description: Several studies have reported a protective effect of vaccination with LDL, or ox-LDL, on the development of atherosclerotic plaque ([23]–[25]). However, the mechanism by which these immunizations convey atheroprotection is an ongoing area of research. […] This was initially a promising hypothesis which subsequently led to the search for atheroprotective B-cell (antibody) epitopes. The discovery of such epitopes was first reported by ...

I-Ab = I-Ab (Mus musculus, UniProt P14434+P14483); settings: MHC Class II allele of Apoe^−/− and LDL-R^−/− mice; cited from earlier work
Description: More recently, researchers have sought to describe the changes in cellular (rather than humoral) immunity that may result from immunization with B-cell epitopes from ApoB-100. Several recent papers have reported an increase in FoxP3^+ expressing TREGS in secondary lymphoid organs [spleens ([32]) and lymph nodes ([33])] after immunization of mice with P210. […] It is not known whether these TREGS are causally related to the atheroprotection that is observed.

H-2 I-A^b [2] = biological target: T1, H-2 I-A^b; settings: known T-cell epitope for comparison; cited from earlier work
Description: Because Apoe^−/− mice are on a C57B/6 background, candidate epitopes must be able to bind to the Class II allele, I-A^b. Previously, it has been shown that I-A^b binding motifs can be predicted using algorithms based on the number of anchor residues and hydrophobicity ([36]–[38]).

Apoe^−/− mice [3] = experiment: Aortic root plaque quantification (Oil Red O) after 1× CFA + 4× IFA immunization; type: in vivo, mouse; settings: female Apoe^−/− mice, 1× CFA + 4× IFA scheme, WD 13 weeks; vs adjuvant-only mice; N = 5
Description: Eight-week-old female Apoe^−/− mice on C57BL/6 background were purchased from Jackson Laboratories (Bar Harbor, ME, USA). Mice were housed in a specific pathogen free environment and fed chow diet until 10 weeks of age. At 10 weeks of age, mice were started on WD (adjusted calories diet with 42% from fat, Harlan Labs Cat #: TD.88137, CA, USA) and remained on WD until sacrifice at 23 weeks old.
Aortic root sections were examined as follows. Hearts were harvested, placed in Optimal Cutting Temperature medium (OCT, Electron Microscopy Sciences, Hatfield, PA, USA), and frozen at −80°C. Beginning at the first appearance of the tri-leaflet aortic valve, successive 5 μm transverse sections were made for a distance of 100 μm. From these, we analyzed every other section, for a total of 10 sections per root. Sections were then stained with Oil Red O and counter-stained with hematoxylin. Extent of atherosclerosis was then determined as the area involved on each section. To measure en face lesion formation, the whole aorta was carefully cleaned in situ and then the whole aorta pinned out after paraformaldehyde incubation at RT for at least 2 h. Staining for atherosclerotic plaque was performed by incubating samples in Sudan IV. Quantification was performed using ImagePro software (Media Cybernetics, Rockville, MD, USA). […]

Apoe^−/− mice [4] = experiment: Antibody titers in plasma by chemiluminescent enzyme immunoassay; type: in vivo, mouse; settings: pooled plasma, chemiluminescent ELISA, 1:250 dilution
Method: Antibody titers in plasma were determined by chemiluminescent enzyme immunoassay as previously described ([41]). In brief, white “U” bottom plates (Thermo Lab systems, USA) were coated with various antigens at 5 μg/mL in PBS for overnight incubation. Following blocking with 1% BSA-TBS serum was added in increasing dilutions and incubated at RT for 90 min. Bound antibodies levels were detected using appropriate alkaline phosphatase-conjugated secondary antibodies and a 50% aqueous solution of LumiPhos 530 (Lumigen, USA). Data are expressed as relative light units counted per 100 ms (RLU/100 ms).

H-2 I-A^b (mouse) = experiment: radioligand binding; competitive inhibition assay: peptides displace a high affinity radio-labeled I-A^b ligand from purified MHC; (label) < (MHC) and IC50 ≥ (MHC), so that IC50 values approximate the true Kd
[5] = Table 1, displacement of 50% of radio-labeled I-A^b ligand, purified MHC, IC50 approximates Kd
[6] = Table 2, ApoB3501–3516- and ApoB978–993-related overlapping peptides, read-out: H-2 I-Ab (IC50 nM)

Molecule: NNYALFLSPRAQQAS
- IC50 (H-2 I-A^b [1]; [5]): 1300 nM

Molecule: HLEYVSSELRKSLQV
- IC50 (H-2 I-A^b [1]; [5]): 22200 nM

Molecule: SFTKGNIKSSFLSQEY
- IC50 (H-2 I-A^b [1]; [6]): 1170 nM

Molecule: C[C@H](NC(=O)CNC(=O)[C@@H](NC(=O)[C@@H](N)[C@@H](C)O)[C@@H](C)O)C(=O)N[C@@H](Cc1ccc(O)cc1)C(=O)N[C@@H](CO)C(=O)N[C@@H](CC(N)=O)C(=O)N[C@@H](C)C(=O)N[C@@H](CO)C(=O)N[C@@H](CO)C(=O)N[C@H](C(=O)N[C@@H](CCC(=O)O)C(=O)N[C@@H](CO)C(=O)N[C@@H](C)C(=O)N[C@@H](CO)C(=O)N[C@@H](Cc1ccc(O)cc1)C(=O)O)[C@@H](C)O
- IC50 (H-2 I-A^b [1]; [6]): 17 nM

Molecule: NVYLNSKGTRSSVRLQ
- IC50 (H-2 I-A^b [1]; [6]): 907 nM

Molecule: SSTESASYYPLTGDTR
- IC50 (H-2 I-A^b [1]; [6]): 1260 nM

Molecule: YENFAASNKLDVTFS
- H-2 I-A^b (IC50 nM) (H-2 I-A^b [1]; [5]): ∞

Molecule: KTTKQSFDLSVKAQYKKNKH [Peptide P210]
- atheroprotection after vaccination of mice (mice): 40–60%
- binding to I-Ab (I-Ab): does not bind; also recorded: not to bind to I-Ab

Molecule: CC(C)C[C@H](NC(=O)[C@H](C)NC(=O)[C@H](Cc1ccc(O)cc1)NC(=O)[C@H](CC(C)C)NC(=O)[C@@H](NC(=O)[C@H](C)NC(=O)[C@H](CCCNC(=N)N)NC(=O)[C@@H](N)CO)[C@@H](C)O)C(=O)N[C@@H](CO)C(=O)N[C@@H](Cc1c[nH]cn1)C(=O)N[C@@H](C)C(=O)N[C@H](C(=O)N[C@@H](CC(N)=O)C(=O)N[C@@H](CO)C(=O)N[C@@H](Cc1ccc(O)cc1)C(=O)O)C(C)C
- IC50 (H-2 I-A^b [1]; [5]): 1370 nM

Molecule: CC(C)C[C@H](NC(=O)[C@H](Cc1ccc(O)cc1)NC(=O)[C@@H](NC(=O)[C@H](CC(N)=O)NC(=O)[C@H](C)NC(=O)[C@H](CCC(=O)O)NC(=O)[C@H](CC(N)=O)NC(=O)[C@H](C)NC(=O)[C@@H](NC(=O)[C@H](CO)NC(=O)CNC(=O)[C@@H](N)CO)C(C)C)C(C)C)C(=O)N[C@@H](CC(N)=O)C(=O)N[C@@H](CO)C(=O)N[C@@H](CCCCN)C(=O)NCC(=O)O
- IC50 (H-2 I-A^b [1]; [6]): 172 nM

Molecule: CC(C)C[C@H](NC(=O)[C@H](Cc1ccccc1)NC(=O)[C@H](CO)NC(=O)[C@@H](N)CO)C(=O)N[C@@H](CO)C(=O)N[C@@H](CCC(N)=O)C(=O)N[C@@H](CCC(=O)O)C(=O)N[C@@H](Cc1ccc(O)cc1)C(=O)N[C@@H](CO)C(=O)NCC(=O)N[C@@H](CO)C(=O)N[C@H](C(=O)N[C@@H](C)C(=O)N[C@@H](CC(N)=O)C(=O)N[C@@H](CCC(=O)O)C(=O)N[C@@H](C)C(=O)O)C(C)C
- IC50 (H-2 I-A^b [1]; [6]): 6.8 nM

Molecule: TRFKHLRKYTYNYEAESSS [Peptide P2]
- atheroprotection after vaccination of mice (mice): 40–60%

Molecule: IALDDAKINFNEKLSQLQTY [Peptide P143]
- atheroprotection after vaccination of mice (mice): 40–60%

Molecule: GWYRSPFSRVVHLY [MOG38–51]
- IC50 (H-2 I-A^b [2]): 354 nM

Molecule: MEVGWYRSPFSRVVHLYRNGK [MOG35–55, irrelevant control peptide, myelin oligodendrocyte glycoprotein 35–55]
- reduction in aortic sinus (aortic root) plaque development, ORO staining (Apoe^−/− mice [3]): no significant decrease
- antibody titers to ApoB3501–3516 or ApoB978–993 in mice immunized with irrelevant peptide (Apoe^−/− mice [4]): no antibody titers
- IgG (IgG1, IgG2c) response to the immunizing peptide (Apoe^−/− mice [4]; vs 1× CFA + 4× IFA group): predominantly IgG2c response

Molecule: SFTKGNIKSSFLSQEY [ApoB_(3501–3516)-related peptide, position 3489, 16 residues]
- IC50 (H-2 I-A^b (mouse)): 1170 nM

Molecule: SGSVANEANVYLNSKG [ApoB_(3501–3516)-related peptide, position 3505, 16 residues]
- IC50 (H-2 I-A^b (mouse)): 172 nM

Molecule: NNYALFLSPRAQQAS [mouse ApoB-100 peptide 4505–4520]
- IC50 (H-2 I-A^b (mouse)): 1300 nM

Molecule: SSFLSQEYSGSVANEA [ApoB_(3501–3516)-related peptide, position 3497, 16 residues]
- IC50 (H-2 I-A^b (mouse)): 6.8 nM

Molecule: SRATLYALSHAVNSY [mouse ApoB-100 peptide 438–453]
- IC50 (H-2 I-A^b (mouse)): 1370 nM

Molecule: SSTESASYYPLTGDTR [ApoB_(978–993)-related peptide, position 985, 16 residues]
- IC50 (H-2 I-A^b (mouse)): 1260 nM

Molecule: HLEYVSSELRKSLQV [mouse ApoB-100 peptide 4054–4069]
- IC50 (H-2 I-A^b (mouse)): 22200 nM

Molecule: NVYLNSKGTRSSVRLQ [ApoB_(3501–3516)-related peptide, position 3513, 16 residues]
- IC50 (H-2 I-A^b (mouse)): 907 nM

Molecule: TTGAYSNASSTESASY [ApoB_(978–993)-related peptide, position 977, 16 residues]
- IC50 (H-2 I-A^b (mouse)): 17 nM
